Assay results reported in ChEMBL document CHEMBL1146110, “QSAR study on topically acting sulfonamides incorporating GABA moieties: a molecular connectivity approach” (Bioorg Med Chem Lett, 2006).

Key:
Carbonic anhydrase 1 = Carbonic anhydrase 1 (Homo sapiens, UniProt P00915)
Carbonic anhydrase 4 = molecular target: T1, Carbonic anhydrase 4 (Bos taurus, UniProt Q95323)
T1 sequence (Q95323 whole entry): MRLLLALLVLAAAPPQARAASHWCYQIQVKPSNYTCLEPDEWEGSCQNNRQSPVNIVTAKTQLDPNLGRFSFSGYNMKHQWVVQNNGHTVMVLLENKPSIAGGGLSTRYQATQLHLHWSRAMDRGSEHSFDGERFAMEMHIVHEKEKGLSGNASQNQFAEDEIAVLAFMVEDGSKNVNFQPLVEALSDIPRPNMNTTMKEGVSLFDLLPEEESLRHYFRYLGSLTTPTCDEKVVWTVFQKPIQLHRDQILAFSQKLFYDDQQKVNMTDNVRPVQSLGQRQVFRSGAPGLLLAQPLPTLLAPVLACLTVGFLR

Carbonic anhydrase 1, sequence (P00915 whole entry): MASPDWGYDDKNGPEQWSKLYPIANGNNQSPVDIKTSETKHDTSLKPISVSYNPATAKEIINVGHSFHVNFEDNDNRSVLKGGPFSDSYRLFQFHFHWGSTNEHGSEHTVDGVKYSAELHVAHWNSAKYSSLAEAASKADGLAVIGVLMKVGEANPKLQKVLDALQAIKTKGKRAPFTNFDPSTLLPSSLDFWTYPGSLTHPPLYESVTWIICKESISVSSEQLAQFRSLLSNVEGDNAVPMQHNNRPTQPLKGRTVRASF

| Ki (Carbonic anhydrase 1) | Ki (Carbonic anhydrase 4) | Compound |
| --- | --- | --- |
| 15200 nM | 164 nM | NCCCC(=O)Nc1ccc(S(N)(=O)=O)cc1 |
| 22500 nM | 305 nM | NCCCC(=O)NNc1ccc(S(N)(=O)=O)cc1 |
| 450 nM | 50 nM | NCCCC(=O)Nc1c(S(N)(=O)=O)cc(S(N)(=O)=O)c(Cl)c1Cl |
| 20000 nM | 243 nM | NCCCC(=O)Nc1ccccc1S(N)(=O)=O |
| 14 nM | 12 nM | NCCCC(=O)Nc1ccc2nc(S(N)(=O)=O)sc2c1 |
| 1750 nM | 180 nM | NCCCC(=O)OCc1ccc(S(N)(=O)=O)cc1 |
| 15 nM | – | Cn1nc(S(N)(=O)=O)s/c1=N/S(=O)(=O)c1ccc(NC(=O)CCCN)cc1 |
| 520 nM | 60 nM | NCCCC(=O)Nc1ccc(S(N)(=O)=O)cc1Br |
| 17200 nM | 215 nM | NCCCC(=O)Nc1cccc(S(N)(=O)=O)c1 |
| 9 nM | 8 nM | Cn1nc(S(N)(=O)=O)s/c1=N/S(=O)(=O)c1ccc(N)cc1 |
| 51 nM | 50 nM | NCCCC(=O)Nc1nccc(Nc2ccc(S(N)(=O)=O)cc2)n1 |
| 61 nM | 67 nM | NCCCC(=O)Nc1ccc(S(=O)(=O)Nc2cccc(S(N)(=O)=O)c2)cc1 |
| 560 nM | 63 nM | NCCCC(=O)Nc1ccc(S(N)(=O)=O)cc1Cl |
| 56 nM | 32 nM | CCN(C(=O)CCCN)C1CC(C)S(=O)(=O)c2sc(S(N)(=O)=O)cc21 (stereo not drawn) |
| – | 5 nM | NS(=O)(=O)c1ccc(CCO)cc1 |

Second part, the compound before the results:

| Compound | Ki (Carbonic anhydrase 1) | Ki (Carbonic anhydrase 4) |
| --- | --- | --- |
| NCCCC(=O)Nc1nnc(S(N)(=O)=O)s1 | 300 nM | 43 nM |
| NCCCC(=O)NCCC(=O)Nc1nnc(S(N)(=O)=O)s1 | 24 nM | 15 nM |
| NCCCC(=O)Nc1ccc(S(N)(=O)=O)cc1I | 500 nM | 56 nM |
| NCCCC(=O)Nc1ccc(S(=O)(=O)Nc2ccc(S(N)(=O)=O)cc2)cc1 | 63 nM | 75 nM |
| NCCCC(=O)OCCOc1ccc2nc(S(N)(=O)=O)sc2c1 | 10 nM | 11 nM |
| NCCCC(=O)Nc1ccc(S(N)(=O)=O)cc1F | 530 nM | 38 nM |
| NCCCC(=O)NCCc1ccc(S(N)(=O)=O)cc1 | – | 62 nM |
| Cn1nc(S(N)(=O)=O)s/c1=N\C(=O)CCCN | 310 nM | 42 nM |
| NCCCC(=O)Oc1ccc2nc(S(N)(=O)=O)sc2c1 | 15 nM | 12 nM |
| NCCCC(=O)NCc1ccc(S(N)(=O)=O)cc1 | – | 69 nM |
| NCCCC(=O)Nc1cc(Cl)c(S(N)(=O)=O)cc1S(N)(=O)=O | 350 nM | 50 nM |
